The results in this text go back to patent publication US4918070A, “Cephalosporin derivatives and antibacterial agents” (Banyu Pharmaceutical Co., Ltd., priority 1987, dated 1990).

Assay in all cases: in vitro antibacterial activity, agar plate dilution method (MIC)
Common to all, as to format: cell-based

One experiment relates to E. coli NIHJ JC2. Particulars: Escherichia coli, NIHJJC2, 16 h, read-out: Minimum Inhibitory Concentration (MIC). The method, then:
(§1) One platinum loopfull of each test microorganism incubated overnight in Mueller Hinton broth, was inoculated to Mueller Hinton agar (inoculum size: 10^6 CFU/ml). Such culture media containing various antibiotics in various concentrations were prepared. After incubation at 37° C. for 16 hours, the minimum inhibitory concentrations (MIC: μg/ml) were measured.

The next experiment has as its system P. vulgaris HX-19. The following applies: Proteus vulgaris, HX19, 16 h, read-out: Minimum Inhibitory Concentration (MIC). The method, then:
as §1

A further experiment has as its system S. marcescens IAM 1184. Particulars: Serratia marcescens, IAM1184, 16 h, read-out: Minimum Inhibitory Concentration (MIC). The method, then:
as §1

The test system of a further experiment is E. cloacae 963. The following applies: Enterobacter cloacae, 963, 16 h, read-out: Minimum Inhibitory Concentration (MIC). On the procedure:
as §1

In the next experiment the test system is K. pneumoniae PCI-602. The following applies: Klebsiella pneumoniae, PCI602, 16 h, read-out: Minimum Inhibitory Concentration (MIC). On the procedure: as §1
The test system of another experiment is S. aureus 209P NIHJ-JCl. The following applies: Staphylococcus aureus, 209P, 16 h, read-out: Minimum Inhibitory Concentration (MIC). On the procedure: as §1

With `CO/N=C(\C(=O)N[C@@H]1C(=O)N2C(C(=O)[O-])=C(OCc3ccc(C#N)cc3)CS[C@H]12)c1csc(N)n1.[Na+]` [Example 12, Sodium 7β-[2-(2-aminothiazol-4-yl)-(Z)-2-methoxyiminoacetamido]-3-(4-cyanobenzyloxy)-3-cephem-4-carboxylate], the MIC was 0.78 µg/mL with E. coli NIHJ JC2; 0.025 µg/mL in the experiment on P. vulgaris HX-19; 0.39 µg/mL in the experiment with S. marcescens IAM 1184; 0.78 µg/mL in the experiment with E. cloacae 963; 0.0125 µg/mL in the experiment on K. pneumoniae PCI-602; 0.78 µg/mL in the experiment on S. aureus 209P NIHJ-JCl.
